According to patent US10640545B2 (THE GOVERNORS OF THE UNIVERSITY OF ALBERTA, priority 2017, dated 2020):
Where a SMILES comes first, the peptide text is derived from it. [ ]: non-standard residue; d: D form. Phe(4-Br) = N[C@@H](Cc1ccc(Br)cc1)C(=O)O; NMeL = CN[C@@H](CC(C)C)C(=O)O; Nle = CCCC[C@H](N)C(=O)O; Aib = CC(C)(N)C(=O)O

Columns and labels:
[1] = tested on: Ldlr^−/− mice; test: Angiotensin II-induced abdominal aortic aneurysm; assay type: in vivo
Description: Experimental Animals and Protocols. Male LDL receptor deficient (Ldlr^−/−) mice were generated and bred in C57BL/6 background. All animal experiments were carried out in accordance with the Canadian Council on Animal Care Guidelines, and animal protocols were reviewed and approved by the Animal Care and Use Committee at the University of Alberta.
Alzet micro-osmotic pump (model 1002 or 1004; Durect Co.) was implanted subcutaneously at the dorsum of the neck to infuse Ang II (1.5 mg/kg^−1d^−1) or vehicle (saline) for 28 days in high fat fed Ldlr^−/− mice.
After 4 weeks of Ang II or saline infusion, mice underwent whole body perfuse-fixation, via the left ventricle, with 10% buffered formalin (80 mmHg, 20 min). […] Collagen positive area was quantified by the morphometric analysis using the Metamorph Basic (version 7.7.0.0) software. In situ DNA fragmentation was detected in 5-μm thick FFPE sections of aorta using the commercially available terminal deoxynucleotidyl transferase-mediated dUTP nick-end labeling (TUNEL) assay kit according to manufacturer's instructions (Invitrogen) as previously described. […] Thickness of the medial layer of the aorta was measured in calibrated images as the mean distance between the external elastin lamella and the internal elastin lamella from 8 randomly selected fields of the cross-section of an aorta using the Metamorph Basic software (version 7.7.0). […]

[2] = tested on: anesthetized mice; test: Blood pressure assay in anesthetized mice; assay type: in vivo; settings: 1.4 μM/kg body weight injected, SBP, DBP, MABP
In short: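 Mice were anaesthetized with 1.5% isoflurane/oxygen and kept at 36 °C. Peptide (1.4 μM/kg body weight) or saline was injected via the right jugular vein. Arterial pressure and heart rate were recorded continuously through a catheter in the aorta via the right carotid artery over 60 min and reported as SBP, DBP, MABP and HR.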

[3] = in vitro; settings: human, plasma
[4] = biological target: NEP (Homo sapiens, UniProt P08473); test: Kinetic parameters for NEP cleavage; assay type: biochemical; design: purchased Sino Biological; settings: enzyme NEP
[5] = biological target: Human plasma kallikrein KLKB1 (Homo sapiens, UniProt P03952); test: Plasma kallikrein KLKB1 qualitative cleavage assay (MALDI-TOF); settings: KLKB1, 37° C., first degradation products by MALDI-TOF
Description: Native apelin-17 (2) and apelin peptides 5, 56, 57, 58 and 59 were dissolved in Milli-Q water (1 mM). Human plasma kallikrein KLKB1 were each reconstituted in Tris buffer (100 mM TrisHCl, 10 mM CaCl2), 150 mM NaCl) and diluted with Tris buffer (50 mM TrisHCl, 250 mM NaCl) to give a KLKB1 concentration of […]. The KLKB1 enzyme was then preincubated at 37° C. for 10 minutes prior to the addition of 5 μL of apelin peptide (1 mM). Aliquots (1 μL) were taken at 1, 2, 4, 6, 12, 24, 36, and 48 hours and analyzed with MALDI-TOF mass spectrometry to qualitatively determine the time point at which degradation products could be observed (Table 4).

[6] = In vitro peptide stability in human blood plasma (RP-HPLC)

Sequence of NEP (P08473 whole entry): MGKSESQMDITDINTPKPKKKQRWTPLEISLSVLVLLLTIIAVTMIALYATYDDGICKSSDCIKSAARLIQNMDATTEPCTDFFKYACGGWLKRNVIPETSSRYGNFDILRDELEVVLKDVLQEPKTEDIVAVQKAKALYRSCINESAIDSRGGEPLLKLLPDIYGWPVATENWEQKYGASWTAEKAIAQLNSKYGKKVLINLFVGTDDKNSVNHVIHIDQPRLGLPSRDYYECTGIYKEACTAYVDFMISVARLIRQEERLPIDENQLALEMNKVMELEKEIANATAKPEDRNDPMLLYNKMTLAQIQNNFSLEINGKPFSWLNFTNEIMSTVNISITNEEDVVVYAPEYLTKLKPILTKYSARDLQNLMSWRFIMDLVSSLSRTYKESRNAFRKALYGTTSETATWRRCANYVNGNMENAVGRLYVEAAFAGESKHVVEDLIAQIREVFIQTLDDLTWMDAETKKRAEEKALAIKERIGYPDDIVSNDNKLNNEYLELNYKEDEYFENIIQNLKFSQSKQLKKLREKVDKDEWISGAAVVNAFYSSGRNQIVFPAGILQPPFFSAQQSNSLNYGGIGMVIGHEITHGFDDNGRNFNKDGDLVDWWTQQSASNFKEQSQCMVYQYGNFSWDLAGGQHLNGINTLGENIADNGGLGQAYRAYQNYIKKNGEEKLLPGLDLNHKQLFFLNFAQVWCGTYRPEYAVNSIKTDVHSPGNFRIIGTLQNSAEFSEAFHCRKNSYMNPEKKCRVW
Sequence of Human plasma kallikrein KLKB1 (P03952 20-638): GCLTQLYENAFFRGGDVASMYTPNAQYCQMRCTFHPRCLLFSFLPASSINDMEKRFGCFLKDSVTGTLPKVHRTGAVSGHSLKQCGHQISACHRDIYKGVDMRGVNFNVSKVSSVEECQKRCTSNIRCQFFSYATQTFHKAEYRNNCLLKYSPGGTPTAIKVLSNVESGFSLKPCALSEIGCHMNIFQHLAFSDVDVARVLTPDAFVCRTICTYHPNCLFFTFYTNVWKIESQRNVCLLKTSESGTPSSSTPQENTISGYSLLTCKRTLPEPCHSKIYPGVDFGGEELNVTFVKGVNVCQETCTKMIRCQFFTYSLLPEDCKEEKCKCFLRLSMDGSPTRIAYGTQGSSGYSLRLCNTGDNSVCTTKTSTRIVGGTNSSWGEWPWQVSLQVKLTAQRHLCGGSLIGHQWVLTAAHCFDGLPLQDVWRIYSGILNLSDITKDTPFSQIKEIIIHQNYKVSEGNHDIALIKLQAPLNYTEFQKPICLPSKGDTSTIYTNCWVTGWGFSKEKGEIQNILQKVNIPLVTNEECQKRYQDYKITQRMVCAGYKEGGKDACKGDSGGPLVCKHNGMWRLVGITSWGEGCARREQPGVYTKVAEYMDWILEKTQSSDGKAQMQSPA

remaining at 0.5 h, 80 µM [3] | remaining at 1 h, 80 µM [3] | Km [4] | kcat [4] | Degradation Onset Timepoint with KLKB1 [5] | remaining at 0.5 h, 80 µM ([6]; human blood plasma) | remaining at 1 h, 80 µM ([6]; human blood plasma) | t1/2 (hplasma, h) ([6]; plasma) | Compound | oxidative stress (DHE fluorescence and NADPH oxidase activity) ([1]; aorta of Ldlr^−/− mice, Ang II + peptide) | formation of abdominal aortic aneurysm ([1]; high fat fed Ldlr^−/− mice, Ang II 1.5 mg/kg/d 28 days, peptide 3 mg/kg/d intraperitoneal 28 days) | blood pressure lowering (hypotensive) effect [2]
49 ± 10% | 47 ± 7% |  |  |  |  |  |  | CCCC[C@H](NC(=O)[C@@H]1CCCN1C(=O)CNC(=O)[C@H](CCCCN)NC(=O)[C@H](Cc1c[nH]cn1)NC(=O)[C@H](CO)NC(=O)[C@H](CC(C)C)N(C)C(=O)[C@H](CCCNC(=N)N)NC(=O)[C@@H]1CCCN1C(=O)[C@H](CCCNC(=N)N)NC(=O)[C@H](CCC(N)=O)NC(=O)[C@H](CCCNC(=N)N)NC(=O)[C@H](CCCNC(=N)N)NC(=O)[C@H](Cc1ccccc1)NC(=O)[C@@H](N)CCCCN)C(=O)NC(C)(C)C(=O)N[C@@H](Cc1ccc(Br)cc1)C(=O)O [Peptide 11] (H-KFRRQRPR[NMeL]SHKGP[Nle][Aib][Phe(4-Br)]-OH; C-terminus assumed) | suppression of oxidative stress | markedly prevented the formation of abdominal aortic aneurysm | potent hypotensive activity that rivaled or bested that of native 2 or A2 variant 5
 |  | 190 ± 40 µM | 3.4 ± 0.3 s⁻¹ | <30 min | 51 ± 17% | 39 ± 7% | 0.02 h | CSCC[C@H](NC(=O)[C@@H]1CCCN1C(=O)CNC(=O)[C@H](CCCCN)NC(=O)[C@H](Cc1cnc[nH]1)NC(=O)[C@H](CO)NC(=O)[C@H](CC(C)C)NC(=O)[C@H](CCCNC(=N)N)NC(=O)[C@@H]1CCCN1C(=O)[C@H](CCCNC(=N)N)NC(=O)[C@H](CCC(N)=O)NC(=O)[C@H](CCCNC(=N)N)NC(=O)[C@H](CCCNC(=N)N)NC(=O)[C@H](Cc1ccccc1)NC(=O)[C@@H](N)CCCCN)C(=O)N1CCC[C@H]1C(=O)N[C@@H](Cc1ccccc1)C(=O)O [Peptide 2, reference compound] |  |  | 
